8 compounds from US9481667B2, “Salts and solid forms of isoquinolinones and composition comprising and methods of using the same” (Infinity Pharmaceuticals, Inc., priority 2013, dated 2016) can be followed below.

Entries after “also recorded” stand apart in the source; their conditions may differ. Where a name gives a salt, the structure may show the parent alone.

Common to all, as to assay type: physicochemical
Data set [1] can be described thus: Gravimetric vapour sorption (GVS). How it is done:
Sorption isotherms were obtained using a Hiden IGASorp moisture sorption analyser, controlled by CFRSorp software. The sample temperature was maintained at 25° C. by a Huber re-circulating water bath. The humidity was controlled by mixing streams of dry and wet nitrogen, with a total flow rate of 250 ml/min. The relative humidity (RH) was measured by a calibrated Vaisala RH probe (dynamic range of 0-95% RH), located near the sample. The weight change, (mass relaxation) of the sample as a function of % RH was constantly monitored by the microbalance (accuracy ±0.001 mg). Typically 10-20 mg of sample was placed in a tared mesh stainless steel basket under ambient conditions. The sample was loaded and unloaded at 40% RH and 25° C. (typical room conditions). A moisture sorption isotherm was performed as outlined below (2 scans giving 1 complete cycle). The standard isotherm was performed at 25° C. at 10% RH intervals over a 0-90% RH range.
The software uses a least squares minimisation procedure together with a model of the mass relaxation, to predict an asymptotic value. The measured mass relaxation value must be within 5% of that predicted by the software, before the next % RH value is selected. The minimum equilibration time was set to 1 hour and the maximum to 4 hours. The sample was recovered after completion of the isotherm and re-analysed by XRPD.

The nature of data set [2]: Polymorph screen: maturation (temperature cycling RT/50° C.) in solvents. As for the experimental part:
One of 21 solvents was added to each vial in a number of aliquots (up to 30 volumes), with shaking. All the samples were then placed under maturation between RT to 50° C. (4 hours at each temperature) for 3 days. After maturation the samples were analysed by XRPD. Clear solutions were cooled to −20° C. (freezer). If no precipitation occurred samples were evaporated at RT.
Samples were placed under maturation between RT-50° C. (4 hours cycle) for 3 days. After maturation the samples were analyzed by XRPD. Clear solutions were then cooled to −20° C. (freezer). If no precipitation occurred, samples were evaporated at RT.
Bis-Sulfuric acid salt Form 1 of Compound 1 (ca. 35 mg) was weighed into vials. The corresponding solvents and solvent mixtures were added in portions of (a total of) 5, 10, 20, and 30 volumes at 50° C., with shaking, aiming for clear solutions. After each addition, the vials were allowed to shake for 20 minutes, after which observations were made. Solutions were allowed to evaporate, whereas slurries were set for 8 hour temperature cycling maturation, between RT and 50° C., for 5 days.
The oils obtained by solvent evaporation were used for the maturation screen. Anhydrous solvents (5 volumes; 100 μL) were used in order to minimise the amount of water present. Any solutions were allowed to slowly evaporate, whereas slurries were set for 8 hour temperature cycling maturation, between RT and 50° C. After 24 hours, most oils had not mixed with the solvents, and these were scratched with a spatula, producing slurries. These were matured for a further 24 hours before performing XRPD analysis.
Amorphous free base Compound 1 (ca. 25 mg) was weighed into vials. The selected solvents and solvent mixtures (5 to 20 volumes) were added with stirring. Any solutions were allowed to slowly evaporate, whereas slurries were set for 8 hour temperature cycling maturation, between RT and 50° C., for 2 days.
Crystals were ground in order to analyse them by XRPD. Suspensions were set for temperature cycling for a total of five days after which time XRPD analysis was carried out. […] Similar to the screen in Example 20, these XRPD patterns show slight differences (FIG. 37). However, solids from both screens obtained from the same solvent show a matching XRPD pattern, also supporting that this is a series of isostructural solvates. […]

A short description of data set [3]: Solubility assessment using free base Hydrate Form 2. To be noted: RT (cell says RT, head 50° C.). How it is done:
The best solvent systems (clear solutions) were methanol:anisole 1:1 and DMSO (10 volumes, at RT), dioxane (10 volumes, 50° C.), chloroform (20 volumes, RT). […]

Data set [4] in a line: Storage at 40° C./75% RH (solid-state stability). To be noted: for Stability on storage at 40° C./75% RH: 1 week, solid form by XRPD; for Storage 40° C./75% RH: salt screen solids stored 1 week, outcome / XRPD pattern after storage.
Procedure: The crystalline solids were filtered, dried at ambient conditions, and stored at 40° C./75% RH for 1 week and analyzed by ^1H NMR/IC.
Samples from the screen using amorphous free base Compound 1 were analysed by ^1H-NMR and DSC, and re-analysis by XRPD was also carried out after drying at 50° C./vacuum and storage at 40° C./75% RH (the same sample was dried and stored at elevated humidity).

In the case of `CC(=O)O.COc1cc(-c2cccc3cc([C@H](C)Nc4nc(N)ncc4C#N)n(-c4ccccc4)c(=O)c23)ccn1.COc1cc(-c2cccc3cc([C@H](C)Nc4nc(N)ncc4C#N)n(-c4ccccc4)c(=O)c23)ccn1` [Batch 1 of Form 6], the “GVS: XRPD after the experiment” value in data set [1] is “anhydrous Form 4”. Moreover, the “GVS: moisture on loading” value in data set [1] (25° C.) is 6.3% w/w moisture on. Also, the “GVS: reversible moisture uptake between 0-90% RH” value in data set [1] (second cycle) is on record as “cycle shows 4.9%”.
For `COc1cc(-c2cccc3cc([C@H](C)Nc4nc(N)ncc4C#N)n(-c4ccccc4)c(=O)c23)ccn1.O` [FB Hydrate Form 2], the XRPD entry in data set [2] (1-butanol, Maturation) is recorded as “Crystalline Form 5”; in data set [2] (2-MeTHF, evaporation yielded oil, maturation of oil) it was “Crystalline Form 5”; in data set [2] (Acetone, Maturation), “Crystalline Form 5”; in data set [2] (DCM:MeOH 1:1, Crystallization in fridge), “Crystalline Form 5 + Form 1”; in data set [2] (DCM, Crystallization in fridge) it was “Crystalline Form 5”; in data set [2] (DMSO, no crystallization in fridge, set for evaporation), “Amorphous”. The XRPD entry is on record as “Crystalline Form 5 + Form 3” in data set [2] (Dioxane, evaporation yielded oil, maturation of oil); “Crystalline Form 5” in data set [2] (EtOAc, Maturation); “Crystalline Form 5” in data set [2] (EtOH/5% water, Maturation); “Crystalline Form 2” in data set [2] (EtOH/water 1:1, Maturation); “Crystalline Form 5” in data set [2] (EtOH, Maturation); “Crystalline Form 5” in data set [2] (IPA, Maturation). Further, the XRPD result in data set [2] (IPAc, Maturation) was “Crystalline Form 5”; in data set [2] (MIBK, Maturation), “Crystalline Form 5”; in data set [2] (MeCN/5% water, Crystallization in fridge) it was “Crystalline Form 5”; in data set [2] (MeOH/anisole, Crystallization in fridge), “Crystalline Form 5”; in data set [2] (THF, Crystallization in fridge), “Crystalline Form 5”; in data set [2] (acetonitrile, Maturation), “Crystalline Form 5”. The XRPD entry in data set [2] (chloroform, cooling in fridge yielded oil, maturation of oil) is on record as “Crystalline Form 5”. The Solubility result in data set [3] (DMSO, 10 vols) is “✓ (RT)”; in data set [3] (MeOH/anisole, 10 vols), “✓ (RT)”; in data set [3] (chloroform, 20 vols) it was “✓ (RT)”.
For the compound `COc1cc(-c2cccc3cc([C@H](C)Nc4nc(N)ncc4C#N)n(-c4ccccc4)c(=O)c23)ccn1` [Form 1 of the hydrochloride salt of Compound 1] [(S)-2-amino-4-((1-(8-(2-methoxypyridin-4-yl)-1-oxo-2-phenyl-1,2-dihydroisoquinolin-3-yl)ethyl)amino)pyrimidine-5-carbonitrile], the “Stability on storage at 40° C./75% RH” value in data set [4] is “deliquesces”; in data set [4] (listed as hydrochloride), “deliquesced”. For the same compound, the “Storage 40° C./75% RH” value in data set [4] (listed as Hydrochloric acid) is recorded as “Deliquesced”.
Take `COc1cc(-c2cccc3cc([C@H](C)Nc4nc(N)ncc4C#N)n(-c4ccccc4)c(=O)c23)ccn1` [Form 1 of the isethionate salt of Compound 1] [(S)-2-amino-4-((1-(8-(2-methoxypyridin-4-yl)-1-oxo-2-phenyl-1,2-dihydroisoquinolin-3-yl)ethyl)amino)pyrimidine-5-carbonitrile]: the figures for the “Stability on storage at 40° C./75% RH” value in data set [4] and in data set [4] (listed as isethionate) were “deliquesces” and “deliquesced”, respectively. Further, the “Storage 40° C./75% RH” value in data set [4] (listed as 2-Hydroxyethane sulfonic acid) is listed as “Deliquesced”.
For `COc1cc(-c2cccc3cc([C@H](C)Nc4nc(N)ncc4C#N)n(-c4ccccc4)c(=O)c23)ccn1` [Form 4 of Free Base Compound 1], the “GVS: moisture on loading” value in data set [1] (25° C.) was found to be 0.3 % w/w. Further, in data set [1] (25° C., with hysteresis on desorption), the “GVS: uptaken between 70-90% RH” value is recorded as 4.8 % w/w.
For the compound `COc1cc(-c2cccc3cc([C@H](C)Nc4nc(N)ncc4C#N)n(-c4ccccc4)c(=O)c23)ccn1` [Form 4 of the free base of Compound 1, (S)-2-amino-4-((1-(8-(2-methoxypyridin-4-yl)-1-oxo-2-phenyl-1,2-dihydroisoquinolin-3-yl)ethyl)amino)pyrimidine-5-carbonitrile], in data set [1] (above 80% RH), the “GVS: form change with humidity” value was “hydrates above 80% RH, but reversibly dehydrates back at 40% RH”. The “XRPD after Storage at 40° C./75% RH” value in data set [4] (screening sample from H2O) is “No changes”.
For the compound `COc1cc(-c2cccc3cc([C@H](C)Nc4nc(N)ncc4C#N)n(-c4ccccc4)c(=O)c23)ccn1` [Form 6 of the free base of Compound 1, (S)-2-amino-4-((1-(8-(2-methoxypyridin-4-yl)-1-oxo-2-phenyl-1,2-dihydroisoquinolin-3-yl)ethyl)amino)pyrimidine-5-carbonitrile], the “GVS: form change with humidity” value in data set [1] (at 0% RH) is given as “Desolvation to the anhydrous Form 4”. Further, the “Stability on storage at 40° C./75% RH” value in data set [4] was “converts to Form 3”. Moreover, in data set [4] (elevated humidity conditions, solid form), the “Storage at elevated humidity” value is “conversion to Hydrate Form 3”.
`CC(=O)c1ccc2c(c1)[C@@H]1C=CC[C@@H]1[C@H](c1cc3c(cc1Br)OCO3)N2` [amorphous material]: the XRPD result is “Crystalline Form 5” in data set [2] (2-MeTHF 200 μL, cycling RT/50° C.); “Crystalline Form 5” in data set [2] (Acetone 100 μL, cycling RT/50° C.); “Crystalline Form 5” in data set [2] (Acetonitrile 200 μL, cycling RT/50° C.); “Crystalline Form 5” in data set [2] (DCM 150 μL, cycling RT/50° C.); “Crystalline Form 5” in data set [2] (DCM:MeOH 1:1 150 μL, cycling RT/50° C.); “Crystalline Form 5” in data set [2] (DME 150 μL, cycling RT/50° C.). Besides, the XRPD entry in data set [2] (EtOAc 100 μL, cycling RT/50° C.) is recorded as “Crystalline Form 5”; in data set [2] (EtOH 250 μL, cycling RT/50° C.) it was “Crystalline Form 5”; in data set [2] (EtOH/5% water 150 μL, cycling RT/50° C.) it was “Crystalline Form 5”; in data set [2] (H2O 450 μL, cycling RT/50° C.), “Partially crystalline =; also recorded: matches FB Pattern 4”; in data set [2] (IPA 150 μL, cycling RT/50° C.), “Crystalline Form 5”; in data set [2] (IPAc 300 μL, 16 hours maturation), “Crystalline Form 5”. Besides, the XRPD entry in data set [2] (MIBK 100 μL, cycling RT/50° C.) is given as “Crystalline Form 5”; in data set [2] (MeCN/5% water 150 μL, cycling RT/50° C.), “Crystalline Form 5”; in data set [2] (MeOH 250 μL, cycling RT/50° C.), “Crystalline Form 5”; in data set [2] (TBME 300 μL, cycling RT/50° C.), “Crystalline Form 5”; in data set [2] (THF 150 μL, cycling RT/50° C.) it was “Crystalline Form 5”; in data set [2] (THF/5% water 150 μL, cycling RT/50° C.), “Crystalline Form 5”.
